# Reference: patent publication US20060210479A1 (Dow Global Technologies Inc., priority 2004, published 2006)
# Where “and” joins values, the source holds several entries; their conditions need not be identical. Identical values can stand only once. Like-named read-outs stand apart in the source and are kept apart here.
# What was measured:
# [1] = test system: LNCaP cell line; assay: Chelate permeability: fluorescence of cytoplasm and membrane fractions; type: cell-based, human
# [2] = test system: DU145 cells; details: for EuQCTME Cell Binding (fluorescence per well): 1 mM
# [3] = biological target: HSPC194 protein (Homo sapiens, UniProt Q9P0S9); assay: Elution of HSPC194 from affinity support column by compounds; details: symbols not defined
# HSPC194 protein, sequence (Q9P0S9 whole entry): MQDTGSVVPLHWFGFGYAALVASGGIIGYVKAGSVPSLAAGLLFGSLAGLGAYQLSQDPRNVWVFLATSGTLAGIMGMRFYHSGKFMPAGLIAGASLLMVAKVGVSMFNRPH
# Text: Purified HSPC194 protein was captured on an affinity support column. The unbound contaminants, which have no affinity for the ligand, are washed through the column, leaving the HSPC194 protein bound to the matrix.
# [4] = test system: cancer cell lines (CaCo-2, Du-145, SK-MES, HLaC, C33-A); details: relative to control cells
# [5] = test system: Caco-2 cells; details: 1 mM, 1 h
# Text: (§2) Before images were captured, an aliquot of the HEPES binding buffer was mounted on a slide and observed for any background fluorescence.
# [6] = test system: HLAC cells; details: for EuQCTME Cell Binding (fluorescence per well): 1 mM
# [7] = test system: HEK293 cells, normal (non-induced); assay: Permeability of chelates to HEK293 cells, fluorescence of fractions; type: cell-based, human; details: HEK293 Normal; 1 mM chelate, 2 hours
# Protocol: The human kidney transformed HEK293 cells (obtained from the ATCC) were grown in Eagle's Minimum Essential Medium (EMEM) supplemented with 10% (v/v) heat-inactivated fetal bovine serum, sodium pyruvate, nonessential amino acids and antibiotics in a humidified 5% CO2 atmosphere at 37° C. Medium and supplements were purchased from Gibco bRL (Grand Island, N.Y.). Etoposide was obtained from Sigma (St. Louis, Mo.) and prepared as 20 mM solution in dimethyl sulfoxide (DMSO). For treatments, etoposide was applied to the HEK293 cultures at 1:1000 dilution (final concentration of 20 μM) after cell became 75% confluent. As a control, cells were fed with medium containing 0.1% DMSO in the absence of etoposide. After treatment with etoposide, cells were incubated in a humidified 5% CO2 at 37° C. for 24 hours. HEK293 cells were collected by removing treatment medium and washed 2 times with 10 mM HEPES buffer. Final cell pellets were resuspended in a small amount of HEPES and stored at 4° C. for further study.
# Cells were grown to confluence in T-150 flasks (about 2×10^6 cells). […] After treatment, the chelate or analogue supernatant was discarded and the cells were rinsed three times at room temperature with 10 mM HEPES. Cells were then removed from the flask by manual scraping. Cells were transferred to a 50-mL conical tube and centrifuged (400×g) for 5 minutes and the test material removed. Remaining cells were rinsed twice with cold 10 mM HEPES. Cells were used in cell binding assays.
# [8] = test system: Caco-2 cells; details: 1 mM
# [9] = test system: NCM460 cells; details: 1 mM, 1 h
# Text: as §2
# [10] = test system: LnCaP prostate adenocarcinoma cells
# Protocol: (§1) To assess whether or not chelate treatment of cancer cells could produce a net modulation in cell growth, the overall growth inhibitory effect of chelates on various cancer cell lines was tested. The concentration of chelate necessary to produce 50% growth inhibition was measured, as determined by detection of the formazan product of cellular […] of 3-(4,5-dimethylthiazol-2-yl)-5-(3-carboxymethoxyphenyl)-2-(4-sulfophenyl)-2H-tetrazolium, inner salt (MTS).
# [11] = test system: DU-145 prostate adenocarcinoma cells
# Protocol: as §1
# [12] = test system: NCM460 normal human colon epithelial cells; details: read-out: Chelate Concentration Producing 50% Inhibition of Cancer Cell Growth; NCM460 control line; MTS; 96 hour continuous exposure
# Protocol: as §1
# [13] = test system: C-33A cervical cells; details: read-out: Chelate Concentration Producing 50% Inhibition of Cancer Cell Growth, MTS, 96 hour continuous exposure
# Protocol: as §1
# [14] = test system: MDA-231 breast adenocarcinoma cells
# Protocol: as §1
# [15] = test system: Caki-1 renal cell carcinoma cells; details: read-out: Chelate Concentration Producing 50% Inhibition of Cancer Cell Growth, MTS, 96 hour continuous exposure
# Protocol: as §1
# [16] = test system: MDA-231-M breast adenocarcinoma cells, metastatic clone; details: read-out: Chelate Concentration Producing 50% Inhibition of Cancer Cell Growth, MTS, 96 hour continuous exposure
# Protocol: as §1
# [17] = test system: HT-29 colon adenocarcinoma cells; details: read-out: Chelate Concentration Producing 50% Inhibition of Cancer Cell Growth, MTS, 96 hour continuous exposure
# Protocol: as §1
# [18] = test system: SK-MES lung non-small cell squamous carcinoma cells; details: read-out: Chelate Concentration Producing 50% Inhibition of Cancer Cell Growth, MTS, 96 hour continuous exposure
# Protocol: as §1
# [19] = test system: HLaC head & neck squamous cell carcinoma cells; details: read-out: Chelate Concentration Producing 50% Inhibition of Cancer Cell Growth, MTS, 96 hour continuous exposure
# Protocol: as §1
# [20] = test system: CaCo-2 colorectal adenocarcinoma cells; details: read-out: Chelate Concentration Producing 50% Inhibition of Cancer Cell Growth, MTS, 96 hour continuous exposure
# Protocol: as §1
# [21] = test system: T84 cell line; assay: Chelate permeability: fluorescence of cytoplasm and membrane fractions; type: cell-based, human; details: 1 mM chelate, 2 h, Table 4
# [22] = test system: Caco-2 cell line; assay: as above; type: cell-based, human
# [23] = test system: excised human colorectal tissue; details: 2 mM/5% ethanol aerosol spray, rinsing, UV 320 nm
# Protocol: Excised tissue was received from human patients undergoing radical resection of the colon as a result of invasive cancer. Sections of tissue were received within 30 minutes of resection and the chelate solution applied as an aerosol spray followed by sequential aqueous rinsing to remove unbound chelate. The resulting tissue was then visualized under UV irradiation (320 nm) to detect the presence of the chelate (red-shifted emission).
# [24] = 0-2000 μM, 2 hours, compared to PZ-HPV-7
smiles,measurement,setting,value
"CCOP(=O)([O-])CN1CCN(Cc2ccc3cc(C)ccc3n2)CCN(CP(=O)([O-])OCC)CCN(CP(=O)([O-])OCC)CC1.[Eu+3] [Eu-QCTME, Eu(III) N-(6-methyl-2-quinolylmethyl)-N′,N″,N′″-tris(methylenephosphonic acid ethyl ester)-1,4,7,10-tetraazacyclododecane]","fluorescence in the cytoplasm, dose response",[1]; [24],significant increases in fluorescence
same,Fluorescence/mg Cytoplasm,"[1]; 1 mM chelate, 2 h, Table 4",3881
same,Fluorescence/mg Membrane,"[1]; 1 mM chelate, 2 h, Table 4",2561
same,EuQCTME Cell Binding (fluorescence per well),[2]; 2 min,"27,884"
same,EuQCTME Cell Binding (fluorescence per well),[2]; 5 min,"10,040"
same,EuQCTME Cell Binding (fluorescence per well),[2]; 15 min,747
same,EuQCTME Cell Binding (fluorescence per well),[2]; 30 min,"19,868"
same,EuQCTME Cell Binding (fluorescence per well),[2]; 45 min,"10,987"
same,EuQCTME Cell Binding (fluorescence per well),[2]; 60 min,"3,235"
same,EuQCTME Cell Binding (fluorescence per well),[2]; 120 min,"15,644"
same,EuQCTME Cell Binding (fluorescence per well),[2]; 180 min,"9,038"
same,EuQCTME Cell Binding (fluorescence per well),[2]; 240 min,"2,506"
same,Totals: Normalized total area under each curve (AUC),[2]; over 240 min,49
same,Elution of HSPC194 10 μM,[3]; compound at 10 μM,0
same,Elution of HSPC194 50 μM,[3]; compound at 50 μM,0
same,time of initial burst of cell-bound fluorescence,[4],≤ 5 min
same,localization by confocal microscopy,[5],predominantly cytoplasmic localization
same,EuQCTME Cell Binding (fluorescence per well),[6]; 2 min,"15,807"
same,EuQCTME Cell Binding (fluorescence per well),[6]; 5 min,"20,493"
same,EuQCTME Cell Binding (fluorescence per well),[6]; 15 min,"13,704"
same,EuQCTME Cell Binding (fluorescence per well),[6]; 30 min,"6,300"
same,EuQCTME Cell Binding (fluorescence per well),[6]; 45 min,"10,068"
same,EuQCTME Cell Binding (fluorescence per well),[6]; 60 min,"3,206"
same,EuQCTME Cell Binding (fluorescence per well),[6]; 120 min,"21,877"
same,EuQCTME Cell Binding (fluorescence per well),[6]; 180 min,"6,510"
same,EuQCTME Cell Binding (fluorescence per well),[6]; 240 min,"2,401"
same,Totals: Normalized total area under each curve (AUC),[6]; over 240 min,51
same,Fluorescence/mg Membrane,[7],1799
same,EuQCTME Cell Binding (fluorescence per well),[8]; 2 min,"4,708"
same,EuQCTME Cell Binding (fluorescence per well),[8]; 5 min,"3,391"
same,EuQCTME Cell Binding (fluorescence per well),[8]; 15 min,"6,806"
same,EuQCTME Cell Binding (fluorescence per well),[8]; 30 min,"11,168"
same,EuQCTME Cell Binding (fluorescence per well),[8]; 45 min,"10,872"
same,EuQCTME Cell Binding (fluorescence per well),[8]; 60 min,"21,176"
same,EuQCTME Cell Binding (fluorescence per well),[8]; 120 min,"29,389"
same,EuQCTME Cell Binding (fluorescence per well),[8]; 180 min,"31,510"
same,EuQCTME Cell Binding (fluorescence per well),[8]; 240 min,"4,575"
same,uptake by confocal microscopy,[9],only a minimal uptake
same,growth inhibition,"[10]; LNCAP, 500 μM, 24 hours exposure",over 30%
same,IC50,"[10]; read-out: Chelate Concentration Producing 50% Inhibition of Cancer Cell Growth, LnCaP, MTS, 96 hour continuous exposure",46.4 µM
same,"inhibitory activity, time course MTS","[11]; 500 μM, 24 hours",showed inhibitory activity
same,IC50,"[11]; read-out: Chelate Concentration Producing 50% Inhibition of Cancer Cell Growth, MTS, 96 hour continuous exposure",54.4 µM
same,IC50,[12],123 µM and 124 µM
same,IC50,[13],41 µM
same,"inhibitory activity, time course MTS","[14]; MDA-231, 500 μM, 24 hours",showed inhibitory activity
same,growth inhibition,"[14]; MDA-MB-231, 500 μM, 24 hours exposure",over 30%
same,IC50,"[14]; read-out: Chelate Concentration Producing 50% Inhibition of Cancer Cell Growth, MDA-231, MTS, 96 hour continuous exposure",39.6 µM
same,IC50,[15],16 µM
same,IC50,[16],46.8 µM
same,IC50,[17],15.8 µM
same,IC50,[18],140 µM
same,IC50,[19],21.9 µM
same,IC50,[20],134 µM
same,Fluorescence/mg Cytoplasm,[21],4548
same,Fluorescence/mg Membrane,[21],2307
same,"fluorescence in the membrane fractions, dose response","[22]; 0-2000 μM, 2 hours",detectable quantity of fluorescence
same,"fluorescence in the cytoplasm, dose response",[22]; [24],significant increases in fluorescence
same,Fluorescence/mg Cytoplasm,"[22]; 1 mM chelate, 2 h, Table 4",4339
same,Fluorescence/mg Membrane,"[22]; 1 mM chelate, 2 h, Table 4",2524
same,localization in adjacent normal tissue,[23],no detectable localization
same,localization in diseased tissue (adenocarcinoma and pre-malignant neoplasm),[23],found to localize in diseased tissue
